Test results published in US20250099420A1, “SMALL MOLECULE MODULATORS OF GPR139 COMPLEX” (University of Florida Research Foundation, Incorporated, priority 2022, published 2025).
Read-outs that look alike come from different tables or passages of the source.

Key:
GPR139 = target: T1, GPR139 (Homo sapiens, UniProt Q6DWJ6); assay: GPR139 Agonist titration / agonist counterscreen assay (calcium detection, HEK-GPR139 cells); assay type: cell-based; parameters: expressed in transfected cells; host or cells: HEK Aequorin cells, Maxcyte transient transfection; settings: GPR139 Agonist Activity; for Averaged Max % Response (±St. Dev.): activity relative to known control; for EC50: read-out: EC50
T1 sequence (Q6DWJ6 1-353): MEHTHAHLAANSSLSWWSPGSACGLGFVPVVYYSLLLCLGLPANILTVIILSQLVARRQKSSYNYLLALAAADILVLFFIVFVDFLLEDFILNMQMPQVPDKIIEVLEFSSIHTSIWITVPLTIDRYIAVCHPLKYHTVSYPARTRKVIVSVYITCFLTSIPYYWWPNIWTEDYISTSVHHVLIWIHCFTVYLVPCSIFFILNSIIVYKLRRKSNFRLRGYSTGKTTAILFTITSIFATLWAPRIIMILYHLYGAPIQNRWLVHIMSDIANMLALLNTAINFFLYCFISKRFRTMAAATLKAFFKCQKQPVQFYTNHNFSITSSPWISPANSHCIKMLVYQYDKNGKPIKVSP
Description: GPR activity was assessed using a calcium detection assay. […] Negative control samples were treated with DMSO. […] Intracellular calcium was measured using Calcium 5.

parental HEK cells = assay: HEK parental Agonist Counterscreen Assay (non-transfected cells); assay type: cell-based; settings: for Averaged Max % Response (±St. Dev.): activity relative to known control
From the text: The high control for the agonist counterscreen was Forskolin not acetylcholine.

[1] = Homo sapiens, HEK293, HEK Agonist Activity section of Table 4 (parental HEK counterscreen)
[2] = HEK Agonist Activity section of Table 4 (parental HEK counterscreen)
[3] = values printed in E-notation without unit

Row | Structure (SMILES) | Averaged Max % Response (±St. Dev.) (GPR139) | Lipophilic Efficiency (logD) (GPR139; based on logD) | Lipophilic Efficiency (logP) (GPR139; based on logP) | Hill Slope (GPR139; fitted dose-response curve) | Efficiency Ligand (GPR139; ligand efficiency) | Lipophilic Efficiency (logD) (parental HEK cells; HEK Agonist Activity section) | Lipophilic Efficiency (logP) (parental HEK cells; HEK Agonist Activity section) | Averaged Max % Response (±St. Dev.) (parental HEK cells; HEK Agonist Activity section) | EC50 (parental HEK cells; [1]) | Efficiency Ligand (GPR139) | Hill Slope (GPR139) | Lipophilic Efficiency (logD) (GPR139) | Lipophilic Efficiency (logP) (GPR139) | EC50 (GPR139; HEK-GPR139 cells) | EC50 (parental HEK cells; [2]) | EC50 (GPR139; [3]) | Lipophilic Efficiency (logD) (parental HEK cells; HEK Agonist Activity) | Lipophilic Efficiency (logP) (parental HEK cells; HEK Agonist Activity) | Averaged Max % Response (±St. Dev.) (parental HEK cells; HEK Agonist Activity) | EC50 (parental HEK cells; Homo sapiens, HEK293, HEK Agonist Activity, parental non-transfected HEK cells)
1 | C=C1C(CC(=C)C2Cc3ccc4ccccc4c3C2)=CC(c2ccccc2)=CC1C (stereo not shown) [SR-00000002785] | 80.59 ± 9.85% | 4.66 | 4.66 | 0.95 | 0.32 | 2.62 | 2.62 | −10.50 ± 3.98% | > 14100 nM | – | – | – | – | – | – | – | – | – | – | –
2 | N[C@H](Cc1ccccc1Cl)c1nc2ccc(-c3ccncc3)cc2[nH]1.O=C(O)C(F)(F)F.O=C(O)C(F)(F)F [SR-00000003277] | 97.54 ± 11.30% | – | – | – | – | 2.04 | 1.13 | 29.67 ± 5.05% | – | 0.34 | 1.48 | 3.23 | 2.32 | 928 nM | > 14100 nM | – | – | – | – | –
3 | CN(C)CCOc1cc(-c2cn[nH]c2)ccc1NC(=O)C1COc2ccc(F)cc2C1.O=C(O)C(F)(F)F.O=C(O)C(F)(F)F (stereo not shown) [SR-00000004118] | 94.30 ± 8.24% | – | – | 1.08 | – | – | – | 13.55 ± 13.03% | – | – | – | – | – | – | > 14100 nM | – | – | – | – | –
4 | CN(C)CCOc1cc(NC(=O)C2COc3ccccc3C2)ccc1-c1cn[nH]c1.O=C(O)C(F)(F)F.O=C(O)C(F)(F)F (stereo not shown) [SR-00000004123] | 79.85 ± 11.38% | – | – | – | – | 3.26 | 1.93 | 3.68 ± 4.29% | – | 0.28 | 0.37 | 4.48 | 3.15 | 847 nM | > 14100 nM | – | – | – | – | –
5 | Cl.Cl.Nc1[nH]ncc1-c1ccc(NC(=O)[C@H](N)Cc2cccc(F)c2)cc1 [SR-00000004378] | 72.99 ± 14.39% | – | – | – | – | 3.65 | 2.98 | −19.97 ± 10.80% | – | 0.34 | 0.72 | 4.84 | 4.17 | 914 nM | > 14100 nM | – | – | – | – | –
6 | CCCCCc1cc(C2=CCC=C2)ccc1CC(=O)C1CCc2ccccc2C1 (stereo not shown) [SR-00000004451] | 92.93 ± 0.53% | 6.38 | 4.33 | 0.70 | 0.33 | 4.36 | 2.31 | 3.04 ± 3.40% | > 14100 nM | – | – | – | – | – | – | – | – | – | – | –
7 | O=C(Nc1ccc(-c2c[nH]cn2)cc1)C1COc2ccc(F)cc2C1 (stereo not shown) [SR-00000004710] | 89.55 ± 3.66% | – | – | – | – | 1.65 | 1.64 | −8.04 ± 14.30% | > 14100 nM | 0.35 | 0.90 | 3.12 | 3.11 | 477 nM | – | – | – | – | – | –
8 | COc1cccc(CNC(=O)Nc2ccc(-c3cn[nH]c3)cc2)c1 [SR-00000005253] | 80.15 ± 4.78% | 4.08 | 4.08 | 0.64 | 0.39 | 2.23 | 2.23 | −10.69 ± 5.73% | > 14100 nM | – | – | – | – | – | – | 202 nM | – | – | – | –
9 | Cc1cccc(CNC(=O)Nc2ccc(-c3cn[nH]c3)cc2)c1.O=C(O)C(F)(F)F [SR-00000005301] | 86.84 ± 8.43% | – | – | – | – | 1.56 | 1.56 | 8.29 ± 4.70% | – | 0.40 | 0.94 | 3.26 | 3.26 | 281 nM | > 14100 nM | – | – | – | – | –
10 | COc1ccc(CNC(=O)Nc2ccc(-c3cn[nH]c3)cc2)cc1.O=C(O)C(F)(F)F [SR-00000005347] | 110.92 ± 4.82% | 4.10 | 4.10 | 0.58 | 0.39 | 2.23 | 2.23 | 11.55 ± 3.19% | – | – | – | – | – | – | > 14100 nM | 189 nM | – | – | – | –
11 | O=C(Nc1ccc(-c2cn[nH]c2)cc1OCCN1CCCC1)C1COc2ccc(F)cc2C1.O=C(O)C(F)(F)F.O=C(O)C(F)(F)F (stereo not shown) [SR-00000005389] | 116.35 ± 10.47% | 4.67 | 3.26 | 0.77 | 0.29 | 2.79 | 1.38 | 31.02 ± 4.14% | – | – | – | – | – | – | > 14100 nM | 186 nM | – | – | – | –
12 | Cc1[nH]ncc1-c1ccc(NC(=O)C2COc3ccc(F)cc3C2)c(OCCN2CCOCC2)c1.O=C(O)C(F)(F)F.O=C(O)C(F)(F)F (stereo not shown) [SR-00000005393] | 87.23 ± 6.46% | – | – | – | – | 1.92 | 1.87 | 10.82 ± 8.56% | – | 0.25 | 0.94 | 3.27 | 3.22 | 629 nM | > 14100 nM | – | – | – | – | –
13 | COC(=O)c1ccc(CNC(=O)Nc2ccc(-c3cn[nH]c3)cc2)cc1.O=C(O)C(F)(F)F [SR-00000005410] | 99.92 ± 5.04% | – | – | – | – | 2.07 | 2.07 | 7.35 ± 2.40% | – | 0.31 | 1.14 | 2.93 | 2.93 | 1900 nM | > 14100 nM | – | – | – | – | –
14 | COc1ccc(CCC(=O)Nc2ccc(-c3cn[nH]c3)c(OC)c2)cc1 [SR-00000005955] | 95.13 ± 3.75% | 4.08 | 4.08 | 1.31 | 0.39 | 1.73 | 1.73 | 18.59 ± 8.23% | > 14100 nM | – | – | – | – | – | – | 62 nM | – | – | – | –
15 | CN1CCC(Oc2cc(-c3cn[nH]c3)ccc2NC(=O)C2COc3ccc(F)cc3C2)C1 (stereo not shown) [SR-00000006339] | 103.42 ± 7.86% | 6.10 | 5.03 | 0.54 | 0.35 | – | – | – | – | – | – | – | – | – | – | 9 nM | 2.91 | 1.83 | 5.16 ± 8.02% | > 14100 nM
